Reference: publication PMC12114840, “Exploring the Anticancer Properties of 1,2,3-Triazole-Substituted Andrographolide Derivatives” (Pharmaceuticals, 2025)

Columns and labels:
[1] = tested on: CCD-18Co cells (non-tumorigenic colon); assay: Sulforhodamine B (SRB) antiproliferative assay, CCD-18Co; format: cell-based; conditions: Homo sapiens, CCD-18Co non-tumorigenic, 48 h, mean ± SEM of four to six independent experiments
Protocol: (§1) The antiproliferative properties of andrographolide and all prepared derivatives (2–26) were evaluated against a panel of different cancer cell lines, including human pancreatic ductal adenocarcinoma (PANC-1), colorectal adenocarcinoma (HCT116), melanoma (A375), breast adenocarcinoma (MCF-7) and a non-tumorigenic colon (CCD-18Co) cell line using the sulforhodamine B assay.
(§2) Human breast adenocarcinoma MCF-7, pancreatic ductal adenocarcinoma PANC-1, melanoma A375, and non-tumorigenic colon CCD-18Co cell lines were purchased from ATCC (Rockville, MD, USA). Human colorectal adenocarcinoma HCT116 cells were kindly provided by B. Vogelstein (The Johns Hopkins Kimmel Cancer Center, Baltimore, MD, USA). Tumor cells were routinely cultured in RPMI-1640 medium with UltraGlutamine from Biowest (VWR, Carnaxide, Portugal) supplemented with 10% fetal bovine serum (FBS) from Biowest (VWR, Carnaxide, Portugal), except for the PANC-1 cells, which were grown in DMEM (4.5 g/L glucose) with stable L-glutamine and sodium pyruvate and supplemented with 10% FBS. The non-tumorigenic CCD-18Co cells were cultured in EMEM (Lonza, VWR, Carnaxide, Portugal), supplemented with 10% FBS. All cells were incubated at 37 °C in a humidified atmosphere of 5% CO2. Routine mycoplasma testing was performed using the MycoAlert™ PLUS mycoplasma detection kit (Lonza).
(§3) For the evaluation of the compound effect on cell proliferation, human cell lines were seeded in 96-well plates at a density of 5.0 × 10^3 (HCT116, MCF-7, PANC-1, A375, and CCD-18Co) cells per well, for 24 h. Cells were then treated with serial dilutions of the compound (ranging from 0.63 to 30 µM), for an additional 48 h incubation period. The growth inhibitory effects were assessed by SRB assay, as described in [58], and the half-maximal inhibitory concentration (IC50 values) were determined for each cell line using the GraphPad Prism software version 7.0 (La Jolla, CA, USA). Culture medium containing a maximum of 0.05% dimethyl sulfoxide (DMSO) was used as negative control.

[2] = tested on: PANC-1 cells; assay: Scratch (wound healing) assay; format: cell-based, human; conditions: PANC-1, 1.35 µM, 6 h and 24 h
Excerpt: Metastasis remains the greatest challenge in the clinical management of cancer. Cell migration is a key process that, during the whole cascade of cancer development, contributes to tumor invasion and metastasis. The scratch assay is a common in vitro technique used to assess two-dimensional cell migration and motility. It involves creating an artificial scratch or “wound” in a confluent monolayer of cells and then monitoring the progression of the wound over time. Therefore, a wound healing assay was used to evaluate the effect of compound 12 on the cell migration ability of PANC-1 cells.
Totals of 6 × 10^5 PANC-1 cells/well were grown to confluence in 6-well plates, and a fixed-width wound was created in the cell monolayer using a sterile 10 µL micropipette tip. Cells were treated with DMSO or 1.35 µM of compound 12 and images of the wound were captured at different time points (0, 6, and 24 h) using an inverted NIKON TE 2000-U microscope from Nikon Instruments Inc. (Izasa, Carnaxide, Portugal) at 100× magnification with a DXM1200F digital camera (Nikon Instruments Inc., Amstelveen, The Netherlands) and NIS-Elements microscope imaging software (version 4; Nikon Instruments Inc.). Wound closure was calculated by subtracting the wound area (measured using Fiji Software, version 1.54f) at the indicated time point of treatment from the wound area at the starting point (0 h).

[3] = tested on: MCF-7 cells (breast adenocarcinoma); assay: Sulforhodamine B (SRB) antiproliferative assay, MCF-7; format: cell-based; conditions: Homo sapiens, MCF7, MCF-7, 48 h, mean ± SEM of four to six independent experiments
Protocol: as §1, §2, §3

[4] = tested on: PANC-1 cells; assay: Annexin V-FITC/PI double-staining apoptosis assay; format: cell-based, human; conditions: 48 h
Excerpt: To further investigate the mechanism of action of the triazole derivative 12, an apoptosis analysis was subsequently performed in PANC-1 cells. The early stages of apoptosis are characterized by the disruption of membrane asymmetry and the translocation of phosphatidylserine from the inner to the outer leaflet of the plasma membrane, which can be detected using Annexin V-FITC, a protein with high affinity for phosphatidylserine. In the later stages of apoptosis, the cell membrane loses its integrity, allowing propidium iodide (PI) to penetrate into the cell. Thus, PANC-1 cells treated with compound 12 at 3 and 6 μM for 48 h were analyzed by flow cytometry after Annexin V-FITC and PI staining (Figure 1B, bottom panel; and Figure 1D). This analysis can distinguish and quantify viable cells (annexin V−, PI−), early apoptotic cells (annexin V+, PI−), late apoptotic cells (annexin V+, PI+), and necrotic cells (annexin V−/PI+). […] Cleavage of PARP-1 into an 89 kDa protein, cleaved PARP-1, occurs during programmed cell death (apoptosis) as a result of proteolytic processing by active caspase-3. Thus, cleaved PARP-1 is recognized as a marker of apoptosis.
The analyses were performed as described in the literature. In particular, 1.5 × 10^5 PANC-1 cells/well were seeded in 6-well plates and allowed to adhere overnight, followed by treatment with 3 µM and 6 µM of compound 12 for 48 h. For cell cycle analysis, cells were stained with propidium iodide (Sigma-Aldrich) and subjected to flow cytometry. Cell cycle phases were identified and quantified using the FlowJo X 10.0.7 software (Treestar, Ashland, OR, USA). For apoptosis analysis, cells were stained using the Annexin V-FITC Apoptosis Detection Kit I from BD Biosciences (Enzifarma, Porto, Portugal), according to the manufacturer’s instructions. The Accuri^TM C6 flow cytometer and the BD Accuri C6 software (BD Biosciences, Heidelberg, Germany) were used.

SMILES: C=C1CC[C@@H]2[C@](C)(COC(C)=O)[C@H](OC(C)=O)CC[C@@]2(C)[C@@H]1C[C@H](C1=CCOC1=O)n1cc(-c2ccc(Br)cc2)nn1 [Compound 12, (12R)-4-bromophenyl-1,2,3-triazole-3,19-diacetoxy-14-deoxy-andrographolide]
- IC50 [1]: 9.6 ± 2.3 µM
- wound closure compared to control [2]: significantly reduced the wound closure
- IC50 [3]: 6.8 ± 0.3 µM
- viability at 3 µM ([4]; Homo sapiens, PANC-1, 3 µM, read-out: viable cells (annexin-V−, PI−; Q4)): 79.7%
- viability at 6 µM ([4]; Homo sapiens, PANC-1, 6 µM, read-out: viable cells (annexin-V−, PI−; Q4)): 68.4%
- early apoptotic cells (annexin V+, PI−; Q3) ([4]; PANC-1, 3 µM): 7.08%
- late apoptotic cells (annexin V+, PI+; Q2) ([4]; PANC-1, 3 µM): 10.2%
- percentage of apoptotic cells (Annexin V+) ([4]; PANC-1, 3 µM): 17.28%
- early apoptotic cells (annexin V+, PI−; Q3) ([4]; PANC-1, 6 µM): 13.3%
- late apoptotic cells (annexin V+, PI+; Q2) ([4]; PANC-1, 6 µM): 13.5%
- percentage of apoptotic cells (Annexin V+) ([4]; PANC-1, 6 µM): 26.8%
